Source: patent US9731035B2, “Method of imaging osteoarthritis using a folate conjugate” (Purdue Research Foundation, priority 2005, dated 2017)
*1 amine or outer side, *2 acyl side, *3 side chain or, on linkers, in order; H or OH if unused. Where a SMILES comes first, the peptide text is derived from it. The star is where a group is joined. X1 = COc1ccc2c(c1)c(CC(=O)OCCS*)c(C)n2C(=O)c1ccc(Cl)cc1; Pteroyl = Nc1nc2ncc(CNc3ccc(C(=O)*)cc3)nc2c(=O)[nH]1; γGlu = O=C(O)[CH](CCC(=O)[*:2])N[*:1]

Assays:
[1] = target: T1, folate receptors on human peripheral blood monocytes (Homo sapiens, UniProt P14207); experiment: Folate dye conjugate binding to human peripheral blood monocytes, flow cytometry; settings: for percentage of human peripheral blood monocytes bound: CD11b+ monocytes, FIG. 2; for binding to human peripheral blood monocytes: FIG. 1
T1 construct: endogenous in cells; host or cells: human peripheral blood monocytes (PBMC isolated by Ficoll-Paque)
Protocol: An 8-10 ml sample of whole blood was collected in EDTA anticoagulant tubes. PBMCs were isolated from the blood samples using Ficoll-Paque Plus (Amersham Biosciences, Piscataway, N.J.) and by following the manufacture's provided protocol. Briefly, the blood sample was diluted 50:50 with a balanced salt solution (described below). 8 mL of Ficoll-Paque Plus was added to a 50 ml conical centrifuge tube. The diluted blood sample (approximately 16-20 ml) was layered on top of the Ficoll gradient. The sample was centrifuged at 400×g for 30 minutes at room temperature. Following centrifugation, the plasma layer (top clear layer) was removed using a pipette leaving the lymphocyte/monocyte layer undisturbed. The hazy cell layer immediately below the plasma layer was removed, being careful to remove the entire cell interface but a minimum amount of the Ficoll layer. The isolated cells were put into a sterile 50 ml conical centrifuge tube and diluted 3-fold (vol/vol) using the balanced salt solution. The resulting cell solution was gently mixed and centrifuged at 100×g for 10 minutes at room temperature to pellet the cells. The supernatant was removed and the cells were resuspended in folate deficient RPMI 1640 medium supplemented with 10% heat-inactivated FBS, penicillin (100 IU/ml) and streptomycin (100 μg/ml). Cells were seeded in microcentrifuge tubes or microscopy chambers as dictated by the experiment.
(§1) All binding experiments were conducted on ice or in a 4° C. cold room unless indicated otherwise. Folate conjugate and ^3H-folic acid binding studies were performed by incubating cells with a 100 nM concentration of the indicated folate dye conjugate for 45 minutes. […] An acidic wash to strip cell-surface bound folate conjugates was performed on indicated samples by washing the cell sample with a 150 mM NaCl solution adjusted to pH 3.5 with acetic acid. All antibody labeling was optimized by titration. Optimal labeling was most often achieved with a 1/1000-1/10,000 dilution of the manufacture's stock antibody solution. After cells were labeled with folate dye conjugates and/or antibodies, the samples were washed twice with PBS to remove non-specific binding. Analysis of folate conjugate binding and/or antibody binding was analyzed by confocal microscopy or by flow cytometry (FCS Calibur, BD, Franklin Lakes, N.J.). After washing ^3H-folic acid samples to remove non-specific binding, cells were dissolved in 0.25M NaOH and radioactivity was counted on a scintillation counter.

[2] = system: folate receptors on peripheral blood monocytes of dogs; experiment: Folate dye conjugate binding to peripheral blood monocytes from dogs, flow cytometry; design: species or system dog; settings: with/without 100-fold excess folic acid, FIG. 5, FIG. 6
Protocol: (§2) An 8-10 ml sample of whole blood was collected in EDTA anticoagulant tubes. PBMCs were isolated from the blood samples using Ficoll-Paque Plus (Amersham Biosciences, Piscataway, N.J.) and by following the manufacture's provided protocol. Briefly, the blood sample was diluted 50:50 with a balanced salt solution (described below). 8 mL of Ficoll-Paque Plus was added to a 50 ml conical centrifuge tube. The diluted blood sample (approximately 16-20 ml) was layered on top of the Ficoll gradient. The sample was centrifuged at 400×g for 30 minutes at room temperature. Following centrifugation, the plasma layer (top clear layer) was removed using a pipette leaving the lymphocyte/monocyte layer undisturbed. The hazy cell layer immediately below the plasma layer was removed, being careful to remove the entire cell interface but a minimum amount of the Ficoll layer. […]
(§3) All binding experiments were conducted on ice or in a 4° C. cold room unless indicated otherwise. […] Analysis of folate conjugate binding and/or antibody binding was analyzed by confocal microscopy or by flow cytometry (FCS Calibur, BD, Franklin Lakes, N.J.). After washing ^3H-folic acid samples to remove non-specific binding, cells were dissolved in 0.25M NaOH and radioactivity was counted on a scintillation counter.

[3] = system: folate receptors on peripheral blood monocytes of horses; experiment: Folate-FITC binding to peripheral blood monocytes from horses, flow cytometry; design: species or system horse; settings: with/without 100-fold excess folic acid, FIG. 5
Protocol: as §2, §3

[4] = system: adjuvant-induced arthritis; experiment: Adjuvant-induced arthritis in rats, paw swelling; format: in vivo, rat
Protocol: Arthritis was induced in 150-200 g female Lewis rats (Harlan, Indianapolis, Ind.), n=2-5/dose group. Briefly, 0.5 mg of heat-killed […] butericum, suspended in mineral oil (5 mg/ml), was injected on day 0 into the left hind foot of rats following anesthesia with ketamine and xylazine. All treated animals developed arthritis, as evidenced by dramatic swelling in the injected paw, progressive swelling in all noninjected limbs due to the systemic progression of arthritis, and radiographic analysis of affected limbs. All rats were maintained on a folate-deficient diet (DYETS, Inc., Bethlehem, Pa.) for 3 weeks prior to administration of therapeutic agents in order to lower serum folate levels to physiologically relevant concentrations. Control rats were also maintained on a folate-deficient diet but were not induced to develop arthritis.
The protocol described in Example 32 for arthritis induction was followed. The efficacy of folate-flumethasone (50 nmoles/kg/day) and folate-indomethacin (100 or 250 nmoles/kg/day) against adjuvant-induced arthritis in rats was investigated. Rats were injected intraperitoneally with either saline (control rats) or folate-flumethasone (50 nmoles/kg/day) or folate-indomethacin (100 or 250 nmoles/kg/day) starting at day 4. The sudden increase in swelling of the adjuvant-injected foot is due to influx of neutrophils which have no folate receptors. […]

[5] = system: folate receptors on white blood cells from dogs; experiment: 3H-folic acid binding to white blood cells from dogs; design: species or system dog; settings: with/without 100-fold excess folic acid, FIG. 4
Protocol: as §1

[6] = target: T2, folate receptors on white blood cells from mice (Mus musculus, UniProt Q05685); experiment: 3H-folic acid binding to white blood cells from mice; settings: with/without 100-fold excess folic acid, FIG. 4
T2 construct: endogenous in cells; host or cells: mouse white blood cells
Protocol: as §1

[7] = absence of unlabeled folic acid
[8] = presence of a 100-fold excess of unlabeled folic acid

T1 sequence (P14207 17-230): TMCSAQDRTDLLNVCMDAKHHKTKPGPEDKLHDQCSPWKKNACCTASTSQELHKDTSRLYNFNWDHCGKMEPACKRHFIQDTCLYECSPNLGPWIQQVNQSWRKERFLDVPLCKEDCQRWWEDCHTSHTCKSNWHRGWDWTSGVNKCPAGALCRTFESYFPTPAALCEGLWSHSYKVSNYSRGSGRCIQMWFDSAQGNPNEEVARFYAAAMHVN
T2 sequence (Q05685 21-227): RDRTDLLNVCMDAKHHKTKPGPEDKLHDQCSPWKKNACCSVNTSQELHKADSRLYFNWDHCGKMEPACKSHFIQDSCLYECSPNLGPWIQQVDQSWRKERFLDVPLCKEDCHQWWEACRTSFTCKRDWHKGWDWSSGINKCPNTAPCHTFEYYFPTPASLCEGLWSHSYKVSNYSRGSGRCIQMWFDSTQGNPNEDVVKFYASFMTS

What does the source list for `Nc1nc2ncc(CNc3ccc(C(=O)NC(CCC(=O)NCCNC(=S)Nc4ccc(C(=O)O)c(-c5c6ccc(=O)cc-6oc6cc(O)ccc56)c4)C(=O)O)cc3)nc2c(=O)[nH]1` (stereo not drawn) [folate-FITC]?
percentage of human peripheral blood monocytes bound [1, 7]: 45.9%; percentage of human peripheral blood monocytes bound [1, 8]: 2%; binding to human peripheral blood monocytes [1, 7]: bound; folate receptor detection on human peripheral blood monocytes ([1]; healthy humans and patients with rheumatoid arthritis, osteoarthritis, fibromyalgia, FIG. 8): detectable; folate receptor detection on human peripheral blood monocytes ([1]; patients with rheumatoid arthritis over the course of therapy, FIG. 10): detectable; binding to human peripheral blood monocytes [1, 8]: competed; folate receptor detection on peripheral blood monocytes [2]: detectable; folate receptor detection on peripheral blood monocytes [3]: detectable

How did the “effect on paw swelling (left foot dimensions) after about 7 days” value ([4]; 50 nmoles/kg/day intraperitoneally starting at day 4, FIG. 9) turn out when `CC1CC2C3CC(F)C4=CC(=O)C=CC4(C)C3(F)C(O)CC2(C)C1(O)C(=O)COC(=O)OCCSSCC(NC(=O)CCC(NC(=O)c1ccc(NCc2cnc3nc(N)[nH]c(=O)c3n2)cc1)C(=O)O)C(=O)O` (stereo not drawn) [folate-flumethasone] was run?
Its value is “potent therapeutic effects”.

Which “effect on paw swelling (left foot dimensions) after about 7 days” value ([4]; 100 or 250 nmoles/kg/day intraperitoneally starting at day 4, FIG. 9) does the source give for `COc1ccc2c(c1)c(CC(=O)OCCSSCC(NC(=O)C(CC(=O)O)NC(=O)C(CC(=O)O)NC(=O)C(CCCNC(=N)N)NC(=O)C(CC(=O)O)NC(=O)CCC(NC(=O)c1ccc(NCc3cnc4nc(N)[nH]c(=O)c4n3)cc1)C(=O)O)C(=O)O)c(C)n2C(=O)c1ccc(Cl)cc1` (stereo not drawn) [folate-indomethacin] ({Pteroyl-γGlu}-DRDDC(X1)-OH; configuration not given here) here?
Its value is “potent therapeutic effects”.

What does the source list for `Nc1nc2ncc(CNc3ccc(C(=O)N[C@@H](CCC(=O)O)C(=O)O)cc3)nc2c(=O)[nH]1` [^3H-Folic acid]?
folate receptor detection on white blood cells [5]: detectable; folate receptor detection on white blood cells [6]: detectable
